Tests used:
[1] = tested on: blackgrass (Alopecurus myosuroides); assay: Test A postemergence, visual injury rating 0-100; type: in vivo; conditions: 0 to 100 scale
[2] = tested on: kochia (Kochia scoparia); assay: Test A postemergence, visual injury rating 0-100; type: in vivo; conditions: 0 to 100 scale
[3] = tested on: wheat (Triticum aestivum); assay: Test A postemergence, visual injury rating 0-100; type: in vivo; conditions: 0 to 100 scale
[4] = tested on: ryegrass, Italian (Italian ryegrass, Lolium multiflorum); assay: Test A postemergence, visual injury rating 0-100; type: in vivo; conditions: 0 to 100 scale
[5] = tested on: ragweed (common ragweed, Ambrosia elatior); assay: Test A postemergence, visual injury rating 0-100; type: in vivo; conditions: 0 to 100 scale
[6] = tested on: barnyardgrass (Echinochloa crus-galli); assay: Test A postemergence, visual injury rating 0-100; type: in vivo; conditions: 0 to 100 scale
[7] = tested on: foxtail, giant (giant foxtail, Setaria faberii); assay: Test A postemergence, visual injury rating 0-100; type: in vivo; conditions: 0 to 100 scale
[8] = tested on: galium (catchweed bedstraw, Galium aparine); assay: Test A postemergence, visual injury rating 0-100; type: in vivo; conditions: 0 to 100 scale
[9] = tested on: pigweed (Amaranthus retroflexus); assay: Test A postemergence, visual injury rating 0-100; type: in vivo; conditions: 0 to 100 scale
[10] = tested on: corn (Zea mays); assay: Test A postemergence, visual injury rating 0-100; type: in vivo; conditions: 0 to 100 scale
[11] = tested on: ducksalad (Heteranthera limosa); assay: Test B flooded paddy test, visual rating 0-100; conditions: Flood, 250 g ai/ha, applied to paddy water, rated after 13 to 15 days
[12] = tested on: barnyardgrass (Echinochloa crus-galli); assay: Test A preemergence, visual injury rating 0-100 (0 no effect, 100 complete control); type: in vivo
[13] = tested on: rice (Oryza sativa); assay: Test B flooded paddy test, visual rating 0-100 (0 no effect, 100 complete control); conditions: Flood, 250 g ai/ha, applied to paddy water, rated after 13 to 15 days
[14] = tested on: barnyardgrass (Echinochloa crus-galli); assay: Test B flooded paddy test, visual rating 0-100; conditions: Flood, 250 g ai/ha, applied to paddy water, rated after 13 to 15 days
[15] = tested on: kochia (Kochia scoparia); assay: Test A preemergence, visual injury rating 0-100; type: in vivo
[16] = tested on: ryegrass, Italian (Italian ryegrass, Lolium multiflorum); assay: Test A preemergence, visual injury rating 0-100; type: in vivo
[17] = tested on: ragweed (common ragweed, Ambrosia elatior); assay: Test A preemergence, visual injury rating 0-100; type: in vivo
[18] = tested on: foxtail, giant (giant foxtail, Setaria faberii); assay: Test A preemergence, visual injury rating 0-100; type: in vivo
[19] = tested on: pigweed (Amaranthus retroflexus); assay: Test A preemergence, visual injury rating 0-100; type: in vivo
[20] = 31 g ai/ha, 0 to 100 scale (0 no effect, 100 complete control), approx. 10 days

Structure (SMILES) | Blackgrass plant response rating ([1]; 125 g ai/ha) | Blackgrass plant response rating ([1]; 500 g ai/ha) | Kochia plant response rating ([2]; 125 g ai/ha) | Kochia plant response rating ([2]; 500 g ai/ha) | Wheat plant response rating ([3]; 125 g ai/ha) | Ryegrass, Italian plant response rating ([4]; 125 g ai/ha) | Ragweed plant response rating ([5]; 125 g ai/ha) | Barnyardgrass plant response rating ([6]; 125 g ai/ha) | Foxtail, Giant plant response rating ([7]; 125 g ai/ha) | Galium plant response rating ([8]; 125 g ai/ha) | Pigweed plant response rating ([9]; 125 g ai/ha) | Corn plant response rating ([10]; 125 g ai/ha) | Ducksalad plant response rating (0 to 100 scale) [11] | Barnyardgrass plant response rating (0 to 100 scale) ([12]; 125 g ai/ha) | Rice plant response rating (0 to 100 scale) [13] | Barnyardgrass plant response rating (0 to 100 scale) [14] | Kochia plant response rating (0 to 100 scale) ([15]; 125 g ai/ha) | Ragweed plant response rating (0 to 100 scale) ([17]; 125 g ai/ha) | Foxtail, Giant plant response rating (0 to 100 scale) ([18]; 125 g ai/ha) | Pigweed plant response rating (0 to 100 scale) ([19]; 125 g ai/ha) | further results
CC1=[N+]([O-])C(C(=O)Nc2cccc(F)c2F)C(c2cccc(Cl)c2F)C1 (stereo not drawn) [Compound 99] | 50 | 70 | 0 | 50 | 0 | 30 | 0 | 90 | 60 | 30 | 0 | 0 | 85 | 90 | 0 | 60 | 10 | 10 | 90 | 0 | Wheat plant response rating ([3]; 500 g ai/ha): 50; Ryegrass, Italian plant response rating ([4]; 500 g ai/ha): 70; Ragweed plant response rating ([5]; 500 g ai/ha): 30; Barnyardgrass plant response rating ([6]; 500 g ai/ha): 90; Foxtail, Giant plant response rating ([7]; 500 g ai/ha): 90; Galium plant response rating ([8]; 500 g ai/ha): 50; Pigweed plant response rating ([9]; 500 g ai/ha): 40; Corn plant response rating ([10]; 500 g ai/ha): 40; Barnyardgrass plant response rating (0 to 100 scale) ([12]; 500 g ai/ha): 90; Kochia plant response rating (0 to 100 scale) ([15]; 500 g ai/ha): 70; Ryegrass, Italian plant response rating (0 to 100 scale) ([16]; 125 g ai/ha): 50; Ryegrass, Italian plant response rating (0 to 100 scale) ([16]; 500 g ai/ha): 70; Ragweed plant response rating (0 to 100 scale) ([17]; 500 g ai/ha): 80; Foxtail, Giant plant response rating (0 to 100 scale) ([18]; 500 g ai/ha): 90; Pigweed plant response rating (0 to 100 scale) ([19]; 500 g ai/ha): 60
CC1=[N+]([O-])C(C(=O)Nc2cccc(F)c2F)C(c2ccc(F)c(Oc3ccc(F)cn3)c2)C1 (racemic) [Compound 48] | 70 |  | 0 |  | 0 | 30 | 30 | 0 | 0 | 40 | 30 | 0 | 70 | 90 | 10 | 20 | 0 | 0 | 90 | 0 | Blackgrass plant response rating ([1]; 31 g ai/ha): 30; Kochia plant response rating ([2]; 31 g ai/ha): 0; Wheat plant response rating ([3]; 31 g ai/ha): 0; Ryegrass, Italian plant response rating ([4]; 31 g ai/ha): 30; Ragweed plant response rating ([5]; 31 g ai/ha): 0; Barnyardgrass plant response rating ([6]; 31 g ai/ha): 0; Foxtail, Giant plant response rating ([7]; 31 g ai/ha): 0; Galium plant response rating ([8]; 31 g ai/ha): 20; Pigweed plant response rating ([9]; 31 g ai/ha): 0; Corn plant response rating ([10]; 31 g ai/ha): 0; Barnyardgrass plant response rating [12, 20]: 0; Kochia plant response rating [15, 20]: 0; Ryegrass, Italian plant response rating [16, 20]: 0; Ryegrass, Italian plant response rating (0 to 100 scale) ([16]; 125 g ai/ha): 20; Ragweed plant response rating [17, 20]: 0; Foxtail, Giant plant response rating [18, 20]: 0; Pigweed plant response rating [19, 20]: 0
CCc1cc(CC)cc(C2CC(C)=[N+]([O-])C2C(=O)Nc2cccc(F)c2F)c1 (racemic) [Compound 109] | 80 | 90 | 0 | 0 | 20 | 70 | 0 | 50 | 80 | 20 | 0 | 80 | 0 | 90 | 0 | 0 | 0 | 0 | 90 | 0 | Wheat plant response rating ([3]; 500 g ai/ha): 80; Ryegrass, Italian plant response rating ([4]; 500 g ai/ha): 80; Ragweed plant response rating ([5]; 500 g ai/ha): 0; Barnyardgrass plant response rating ([6]; 500 g ai/ha): 80; Foxtail, Giant plant response rating ([7]; 500 g ai/ha): 90; Galium plant response rating ([8]; 500 g ai/ha): 20; Pigweed plant response rating ([9]; 500 g ai/ha): 0; Corn plant response rating ([10]; 500 g ai/ha): 90; Barnyardgrass plant response rating (0 to 100 scale) ([12]; 500 g ai/ha): 100; Kochia plant response rating (0 to 100 scale) ([15]; 500 g ai/ha): 50; Ryegrass, Italian plant response rating (0 to 100 scale) ([16]; 500 g ai/ha): 100; Ragweed plant response rating (0 to 100 scale) ([17]; 500 g ai/ha): 30; Foxtail, Giant plant response rating (0 to 100 scale) ([18]; 500 g ai/ha): 90; Pigweed plant response rating (0 to 100 scale) ([19]; 500 g ai/ha): 0
CC1=[N+]([O-])C(C(=O)Nc2cccc(F)c2F)C(c2c(F)cccc2Cl)C1 (racemic) [Compound 14] | 0 | 0 | 0 | 0 | 0 | 0 | 0 | 0 | 0 | 0 | 0 | 0 | 20 | 0 | 0 | 40 | 0 | 0 | 0 | 0 | Wheat plant response rating ([3]; 500 g ai/ha): 0; Ryegrass, Italian plant response rating ([4]; 500 g ai/ha): 0; Ragweed plant response rating ([5]; 500 g ai/ha): 0; Barnyardgrass plant response rating ([6]; 500 g ai/ha): 0; Foxtail, Giant plant response rating ([7]; 500 g ai/ha): 0; Galium plant response rating ([8]; 500 g ai/ha): 0; Pigweed plant response rating ([9]; 500 g ai/ha): 0; Corn plant response rating ([10]; 500 g ai/ha): 0; Barnyardgrass plant response rating ([12]; 500 g ai/ha, 0 to 100 scale): 0; Kochia plant response rating ([15]; 500 g ai/ha, 0 to 100 scale): 0; Ryegrass, Italian plant response rating (0 to 100 scale) ([16]; 125 g ai/ha): 0; Ryegrass, Italian plant response rating ([16]; 500 g ai/ha, 0 to 100 scale): 0; Ragweed plant response rating ([17]; 500 g ai/ha, 0 to 100 scale): 0; Foxtail, Giant plant response rating ([18]; 500 g ai/ha, 0 to 100 scale): 0; Pigweed plant response rating ([19]; 500 g ai/ha, 0 to 100 scale): 0
CC1=[N+]([O-])C(C(=O)Nc2cccc(F)c2F)C(c2ccc(C(F)(F)F)cn2)C1 (racemic) [Compound 88] | 10 | 30 | 0 | 30 | 0 | 0 | 0 | 0 | 0 | 20 | 0 | 0 | 100 | 20 | 15 | 15 | 10 | 0 | 20 | 0 | Wheat plant response rating ([3]; 500 g ai/ha): 0; Ryegrass, Italian plant response rating ([4]; 500 g ai/ha): 0; Ragweed plant response rating ([5]; 500 g ai/ha): 10; Barnyardgrass plant response rating ([6]; 500 g ai/ha): 50; Foxtail, Giant plant response rating ([7]; 500 g ai/ha): 10; Galium plant response rating ([8]; 500 g ai/ha): 50; Pigweed plant response rating ([9]; 500 g ai/ha): 0; Corn plant response rating ([10]; 500 g ai/ha): 0; Barnyardgrass plant response rating (0 to 100 scale) ([12]; 500 g ai/ha): 90; Kochia plant response rating (0 to 100 scale) ([15]; 500 g ai/ha): 70; Ryegrass, Italian plant response rating (0 to 100 scale) ([16]; 125 g ai/ha): 0; Ryegrass, Italian plant response rating (0 to 100 scale) ([16]; 500 g ai/ha): 0; Ragweed plant response rating (0 to 100 scale) ([17]; 500 g ai/ha): 80; Foxtail, Giant plant response rating (0 to 100 scale) ([18]; 500 g ai/ha): 90; Pigweed plant response rating (0 to 100 scale) ([19]; 500 g ai/ha): 60

— patent publication US11498899B2, “Nitrone herbicides” (FMC Corporation, priority 2016, dated 2022)
